Test results as given in ChEMBL document CHEMBL4888484, “Replenishing the malaria drug discovery pipeline: Screening and hit evaluation of the MMV Hit Generation Library 1 (HGL1) against asexual blood stage Plasmodium falciparum ,using a nano luciferase reporter read-out” (2022).
pIC50: −log10 of the molar value.

Legend:
[1] = test system: Plasmodium falciparum; assay: Hit confirmation in dose-response curve in NF54 nanoGlo assay, at 72h; assay type: functional, organism-based, Erythrocyte; set-up: timepoint 72 hour; conditions: Plasmodium falciparum, NF54, Erythrocyte, 72 h
[2] = test system: Plasmodium falciparum; assay: Hit confirmation in dose-response curve in NF54 pLDH assay, at 72h; assay type: functional, organism-based; set-up: timepoint 72 hour; conditions: NF54, Erythrocyte
[3] = test system: Plasmodium falciparum; assay: Hit confirmation in dose-response curve in NF54 nanoGlo assay, at 12h; assay type: functional, organism-based, Erythrocyte; set-up: timepoint 12 hour; conditions: Plasmodium falciparum, NF54, Erythrocyte, 12 h
[4] = test system: Plasmodium falciparum; assay: Hit confirmation in dose-response curve in Dd2 pLDH assay, at 72h; assay type: functional, organism-based; set-up: timepoint 72 hour; conditions: Dd2, Erythrocyte
[5] = Hit confirmation in dose-response curve in HepG2 cytotoxicity assay, at 72h; assay type: toxicity, cell-based; set-up: timepoint 72 hour; conditions: human, HepG2 cells

SMILES	pIC50 [1]	pIC50 [2]	pIC50 [3]	pIC50 [4]	IC50 at 72 h [5] [µM]
COc1ccc(CCNC(=O)c2cnn3c4c(cnc23)C[C@@H](C)CC4)cc1OC	5.52	< 5.00	5.90	< 5.00	> 10
CCOc1ccc(-c2cc(NC(=O)c3cc(-c4cccnc4)nc4ccccc34)on2)cc1OCC	5.72	< 5.00	5.57	5.31	> 10
CCOc1ccc(NC(=O)c2cn3nc(-c4ccc(OCC)cc4)cc3nc2C2CCN(C(=O)OC(C)(C)C)CC2)cc1	< 5.00	< 5.00	< 5.00	5.11	> 10
CCNc1nc(C)cc(Nc2ccc(NS(=O)(=O)c3c(C)noc3C)cc2)n1	5.57	5.46	5.30	5.60	> 10
COc1ccc(-c2cc3n(n2)C[C@@](C)(C(=O)NCc2ccccc2)N(Cc2ccc4c(c2)OCO4)C3=O)cc1	5.61	< 5.00	5.31	5.02	> 10
COC(=O)c1ccccc1NC(=O)NCCn1nnc2cc(S(=O)(=O)N(C)C)ccc21	5.59	< 5.00	< 5.00	< 5.00	> 10
Oc1ccc2ncccc2c1[C@@H](Nc1ccccn1)c1cccc(Br)c1	5.80	5.29	5.51	5.56	> 10
CCc1ccc(-c2cc3n(n2)C[C@@](C)(C(=O)NC2CCCCC2)N(c2cc(C)cc(C)c2)C3=O)cc1	5.64	5.00	5.24	5.12	> 10
Cc1cc2nc(C)c(=O)n(Cc3ccc(C(=O)NCCN4CCCC[C@@H]4C)cc3)c2cc1C	5.38	5.26	< 5.00	5.16	> 10
CC(=O)Nc1ccc(C)cc1S(=O)(=O)N1CC=C(c2c(C)n(Cc3ccccc3C)c3ccccc23)CC1	5.77	5.35	5.73	5.46	> 10
Cc1ccc(-c2cc(C(=O)Nc3nnc(C(C)C)s3)no2)cc1F	5.42	< 5.00	5.72	< 5.00	> 10
C[C@@]1(C(=O)NCc2ccccc2)Cn2nc(-c3ccccc3)cc2C(=O)N1c1ccc2c(c1)OCCO2	5.65	5.01	5.46	5.13	> 10
c1ccc(-c2noc(-c3ccc(NC4CCCCC4)nn3)n2)cc1	5.51	5.10	< 5.00	5.14	> 10
Cc1cccc(-c2nc(C[N+]3(Cc4nc(-c5cccc(C)c5)oc4C)CCCC3)c(C)o2)c1	5.55	5.32	< 5.00	5.47	> 10
COc1ccc(-c2cc3n(n2)C[C@@](C)(C(=O)NCc2ccccc2OC)N(c2cccc(OC)c2)C3=O)cc1	5.52	< 5.00	5.32	< 5.00	> 10
CCOC(=O)C1CCC(CN(Cc2ccc(OC)cc2)S(=O)(=O)c2cc(C(=O)Nc3ccc(OCC)cc3)ccc2F)CC1 (stereo not given)	5.30	< 5.00	5.10	< 5.00	> 10
CC(C)N1CCC2(CC1)N=C(c1ccc3c(c1)OCO3)C[C@@H](c1cc(Cl)ccc1O)N2	5.42	< 5.00	5.37	5.08	> 10
CCc1cccc(NC(=O)Cn2ccc3ccc(-c4nnc(C)o4)cc32)c1	5.74	5.57	5.58	5.62	> 10
Cc1ccc(N(Cc2cccs2)C(=O)c2cccs2)cc1Cl	5.47	5.03	5.24	5.33	> 10
Cc1cc(C)cc(-c2cc3nc(C)cc(N4CCC(C(=O)NCc5cccc(F)c5)CC4)n3n2)c1	5.83	5.61	5.36	5.69	> 10
CCc1ccc(C2=C[C@@H](c3cccc(OC)c3)n3ncc(C(=O)Nc4ccc(C)cc4)c3N2)cc1	5.58	5.06	5.42	5.42	> 10
Cc1ccc([C@H](c2c[nH]c3ccccc23)N(C)C(=O)C(C)C)cc1	5.56	< 5.00	5.82	< 5.00	> 10
COc1ccc(CNCc2ccc(C)cc2)cc1Cn1ccnc1	5.73	5.57	5.54	5.85	> 10
CCn1cc(-c2nc(-c3ccccc3C)no2)c(=O)c2cc(F)c(N3CCCCC3)cc21	5.22	4.96	< 5.00	4.99	> 10
